Key:
[1] = tested on: DNA-PK null SCID mouse cell line; test: Cell viability following irradiation (CellTiter-Glo); format: cell-based; conditions: single agent or in combination with radiation
Description: (§1) To evaluate the radiosensitizing effects of compounds of the invention in combination with ionizing radiation (IR), a broad panel of cell lines across multiple tumor types and genetic backgrounds were tested. Cells were incubated with DMSO or compound 578 for 30 minutes and then exposed to various doses of radiation (0, 0.5, 1, 2, 4, 6, 8, and 16 Gy). Cell viability was assessed at 6 days using CellTiter-Glo® (Promega, Inc).

H2009 = test: as above; format: cell-based; conditions: compound 2.1 μM + IR, 6 days, DMSO 7.6 Gy
Description: as §1

DNA-PK = DNA-PK (Homo sapiens, UniProt P78527); test: DNA-PK inhibition assay (radiometric, 33P-ATP); format: biochemical; conditions: 100 μM ATP, competitive tight-binding fit
Outline: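 33P transfer from 100 µM ATP to a DNA-PK peptide (0.8 mg/mL) is measured after 45 min, using about 6 nM enzyme activated by 10 µg/mL sheared dsDNA (HEPES pH 7.5, MgCl2, DTT). Filter-bound counts fitted to a competitive tight-binding inhibition model give Ki.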

| Compound | effect on cell viability [1] | EC50 IR (H2009) | Ki (DNA-PK) |
| --- | --- | --- | --- |
| CNC(=O)c1ccnc2c([C@H](C)CNc3cc(-c4cnc(C)nc4)ncn3)cccc12 [Compound 578, (S)—N-methyl-8-(1-((2′-methyl-[4,5′-bipyrimidin]-6-yl)amino)propan-2-yl)quinoline-4-carboxamide] | minimal effect on cell viability | 2.5 Gy | < 30 nM |
| CNC(=O)c1ccnc2c([C@H](C)CNc3cc(-c4cnc(N)c(C)c4)ncn3)cccc12 [Compound 948] |  |  | < 30 nM |
| CNC(=O)c1ccc(C(C)CNc2cc(-c3cnc4c(cnn4CC#N)c3)ncn2)c(OC)c1 (stereo not drawn) [Compound 441] |  |  | < 30 nM |
| C[C@H](CNc1cc(-c2cnc3c(cnn3CCO)c2)ncn1)c1ccnc2cccnc12 [Compound 472] |  |  | < 30 nM |
| CNC(=O)c1ccnc2c([C@H](C)CNc3cc(-c4ccc(C(=O)N(C)C)s4)ncn3)cccc12 [Compound 777] |  |  | < 30 nM |
| COc1ccccc1[C@H](C)CNc1cc(-c2ccc(NC(C)CO)nc2)ncn1 (single isomer, unassigned) [Compound 126] |  |  | < 30 nM |
| CNC(=O)c1ccnc2c([C@H](C)CNc3cc(-c4cnnc(C)c4)ncn3)ccc(F)c12 [Compound 969] |  |  | < 30 nM |
| Cc1ccc(-c2cc(NCC(C)c3cccc4nccnc34)ncn2)cn1 (stereo not drawn) [Compound 332] |  |  | < 30 nM |
| CNC(=O)c1ccc(C(C)CNc2cc(-c3ccc(OC(C)C)nc3)ncn2)c(OC)c1 (stereo not drawn) [Compound 324] |  |  | < 30 nM |
| CONC(=O)c1ccc(C(C)CNc2cc(-c3ccc(C)nc3)ncn2)c(OC)c1 (stereo not drawn) [Compound 157] |  |  | < 30 nM |
| CNC(=O)c1ccnc2c([C@H](C)CNc3cc(-c4ccc(OCC5CC5)nc4)ncn3)ccc(F)c12 [Compound 904] |  |  | < 30 nM |
| CCOc1cc(-c2cc(NC[C@@H](C)c3cccc4c(C(=O)NC)c(F)cnc34)ncn2)cnc1OCC [Compound 897] |  |  | < 30 nM |
| CNC(=O)c1ccnc2c([C@H](C)CNc3cc(-c4ccc(C5(N)CC5)nc4)ncn3)ccc(F)c12 [Compound 940] |  |  | < 30 nM |
| COc1ccccc1CCNc1cc(-c2cnc3[nH]ccc3c2)ncn1 [Compound 8] |  |  | < 30 nM |
| CNC(=O)c1ccnc2c([C@H](C)CNc3cc(-c4cnc(CO)c(OC)c4)ncn3)cccc12 [Compound 821] |  |  | < 30 nM |
| COc1cc(C(=O)NCC(F)(F)F)ccc1C(C)CNc1cc(-c2ccc(C)nc2)ncn1 (stereo not drawn) [Compound 218] |  |  | < 30 nM |
| C[C@H](CNc1cc(-c2cc(C(F)(F)F)c3ncccc3c2)ncn1)c1ccnc2c1OCC2 [Compound 591] |  |  | < 30 nM |
| CNC(=O)c1ccnc2c([C@H](C)CNc3cc(-c4ccc(N)nc4)ncn3)cccc12 [Compound 586] |  |  | < 30 nM |
| CNC(=O)c1ccc(C(C)CNc2cc(-c3ccc(C)nc3)ncn2)c(OC)c1 (stereo not drawn) [Compound 123] |  |  | < 30 nM |
| CC(CNc1cc(-c2ccc(N3CCN(C)CC3)nc2)ncn1)c1ccccc1OC1COC1 (stereo not drawn) [Compound 102] |  |  | < 30 nM |
| CNC(=O)c1ccnc2c([C@H](C)CNc3cc(-c4ccc(C)nc4)ncn3)ccc(F)c12 [Compound 515] |  |  | < 30 nM |
| CNC(=O)c1ccc([C@H](C)CNc2cc(-c3cnc(C)nc3)ncn2)c(OC)c1 [Compound 308] |  |  | < 30 nM |

Source: patent publication US10391095B2, “DNA-PK inhibitors” (Vertex Pharmaceuticals Incorporated, priority 2012, dated 2019)
